Reference: PubChem BioAssay AID588482 (NMMLSC, 2011)
Active and inactive are the calls of the source.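 The calls were made as follows: active = a percent response above zero, which rounds up to a positive score; inactive = the rest.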

Molecular target: Beta-adrenergic receptor kinase 1 (Homo sapiens) (UniProt P25098)
Assay: inhibition of GRK2-catalyzed rhodopsin phosphorylation – biochemical, set 2, orthogonal assay for GRK2 aptamer-displacement inhibitor project, late-stage follow-up (AID 588482)
Settings: 32P incorporation, SDS-PAGE, at 200 µM, active compounds read high

Beta-adrenergic receptor kinase 1 (Homo sapiens), sequence (P25098 whole entry, looked up): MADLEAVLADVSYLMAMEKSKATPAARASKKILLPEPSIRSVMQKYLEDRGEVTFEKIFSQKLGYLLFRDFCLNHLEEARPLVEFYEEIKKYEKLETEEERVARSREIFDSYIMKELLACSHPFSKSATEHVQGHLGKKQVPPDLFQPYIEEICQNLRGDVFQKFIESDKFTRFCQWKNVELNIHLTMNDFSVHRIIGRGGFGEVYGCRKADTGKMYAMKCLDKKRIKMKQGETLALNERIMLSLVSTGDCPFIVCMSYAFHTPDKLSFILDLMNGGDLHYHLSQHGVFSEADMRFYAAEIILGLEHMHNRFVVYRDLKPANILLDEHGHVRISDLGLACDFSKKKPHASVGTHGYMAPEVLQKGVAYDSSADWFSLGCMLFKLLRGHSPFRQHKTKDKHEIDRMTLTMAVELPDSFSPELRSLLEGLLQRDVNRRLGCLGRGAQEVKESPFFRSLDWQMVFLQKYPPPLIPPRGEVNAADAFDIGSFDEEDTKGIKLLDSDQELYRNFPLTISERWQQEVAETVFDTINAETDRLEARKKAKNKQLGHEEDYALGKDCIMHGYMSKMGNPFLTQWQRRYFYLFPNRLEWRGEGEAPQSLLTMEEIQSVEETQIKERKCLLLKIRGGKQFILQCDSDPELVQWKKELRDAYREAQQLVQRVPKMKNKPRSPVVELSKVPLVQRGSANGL

Row | inhibition | SMILES
1 | -32.3% (inactive) | O=C(CCS(=O)(=O)c1ccc(Br)s1)Nc1ccccc1Br
2 | -18.3% (inactive) | COC(=O)c1ccccc1NC(=O)CCS(=O)(=O)c1ccc(Br)s1
3 | -29.5% (inactive) | COc1ccc(CCNC(=O)CCS(=O)(=O)c2ccc(Br)cc2)cc1OC
4 | 59.3% | CCN(CC)c1ccc(NC(=O)CCS(=O)(=O)c2ccc(Br)cc2)c(C)c1
5 | -71.8% (inactive) | COC(=O)c1ccc(NC(=O)CCS(=O)(=O)c2ccc(Br)cc2)cc1
6 | 11.4% | O=C(CCS(=O)(=O)c1ccc(Br)cc1)Nc1ccc(Br)cc1F
7 | 8.45% | O=C(CCS(=O)(=O)c1ccc(Br)cc1)NCc1cccs1
8 | 46.8% | CC(CS(=O)(=O)c1ccc2c(c1)NC(=O)CS2)C(=O)NCc1ccccc1Cl (stereo not drawn)
9 | -7.11% (inactive) | Cc1ccccc1NC(=O)CCS(=O)(=O)c1ccc(Br)s1
10 | -30.2% (inactive) | Cc1ccc(CCNC(=O)CCS(=O)(=O)c2ccc(Br)cc2)cc1
11 | 46.5% | O=C(O)Cc1ccc(-n2cccc2)cc1
12 | -28.6% (inactive) | CCOc1ccc(NC(=O)CCS(=O)(=O)c2ccc(Br)cc2)cc1
13 | 30.9% | COc1ccc([N+](=O)[O-])cc1NC(=O)CCS(=O)(=O)c1ccc(Br)cc1
14 | 11% | COc1ccc(Cl)cc1NC(=O)CCS(=O)(=O)c1ccc(Br)cc1
15 | 0.79% | CCOc1ccccc1NC(=O)CCS(=O)(=O)c1ccc(Br)cc1
16 | -50.6% (inactive) | Cc1cccc(CCNC(=O)CCS(=O)(=O)c2ccc(Br)cc2)c1
17 | -15.8% (inactive) | NS(=O)(=O)c1ccc(CCNC(=O)CCS(=O)(=O)c2ccc(Br)cc2)cc1
18 | -90.5% (inactive) | COc1ccc(NC(=O)CCS(=O)(=O)c2ccc(Br)s2)cc1
19 | -20% (inactive) | CC(=O)N1CCN(Cc2nc3cc(Cl)ccc3c(=O)[nH]2)CC1
20 | -54% (inactive) | O=C(CSc1nc2ccccc2c(=O)n1-c1ccccc1)NC(=O)CN1CCCC1=O
21 | 36.7% | C#CCSc1nc2sc3c(c2c(=O)n1C)CCC3
22 | -3.83% (inactive) | Cc1cc2ccccc2n1CCNC(=O)C(C)Oc1ccccc1 (stereo not drawn)
23 | -42.4% (inactive) | O=C(CN1CCc2ccccc21)NC(=O)NCc1ccccc1
